Laboratory results: patent publication US6806230B1, “Pyrimidine derivatives and herbicides containing them” (Kumiai Chemical Industry Co., Ltd., priority 1999, dated 2004)

Experiments:
Format in all cases: in vivo
barnyard grass (Ec) [1] = assay: Test Example 2: herbicidal effects by upland soil treatment; design: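 0-5 growth inhibition grade; 5 = over 90%; 4 = 70-90%; 3 = 50-70%; 2 = 30-50%; 1 = 10-30%; 0 = under 10%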; settings: dose 100 g active ingredient per 10 ares, examined on the 21st day after treatment
Method in brief: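 Pre-emergence test: barnyard grass and green foxtail sown in upland soil, then soil surface sprayed with wettable-powder formulation at 100 g active ingredient per 10 ares (100 l per 10 ares). Grown in greenhouse; herbicidal effect scored on a rating scale 21 days after treatment.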

monochoria (Mo) [2] = assay: Test Example 4: selectivity for a crop plant by flooded paddy field treatment; design: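 0-5 growth inhibition grade; 5 = over 90%; 4 = 70-90%; 3 = 50-70%; 2 = 30-50%; 1 = 10-30%; 0 = under 10%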; settings: monochoria, dose 25 gai/10a, 21st day after treatment, index per Table 44
Method in brief: (§1)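 Flooded-paddy treatment: the wettable powder formulation, diluted in water, was applied dropwise to 3 cm floodwater at 25 g a.i./10 ares one day after sowing barnyard grass and monochoria and transplanting rice at the second leaf stage. Greenhouse grown; herbicidal effect rated against set standards on day 21.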

rice (Or) = assay: as above; design: scale not given here; settings: rice transplanted at second leaf stage, dose 25 gai/10a, 21st day after treatment, index per Table 44
Method in brief: as §1

barnyard grass (Eo) [3] = assay: as above; design: scale not given here; settings: barnyard grass, dose 25 gai/10a, 21st day after treatment, index per Table 44
Method in brief: as §1

monochoria (Mo) [4] = assay: Test Example 1: herbicidal effects by flooded paddy field treatment; design: herbicidal effects, Mo (monochoria):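 0-5 growth inhibition grade; 5 = over 90%; 4 = 70-90%; 3 = 50-70%; 2 = 30-50%; 1 = 10-30%; 0 = under 10%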; settings: for herbicidal effects, Mo (monochoria): dose 100 g active ingredient per 10 ares, examined on the 21st day after treatment, standards of Table 44;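 as to Herbicidal effect index, Mo: 0-5 growth inhibition grade; 5 = over 90%; 4 = 70-90%; 3 = 50-70%; 2 = 30-50%; 1 = 10-30%; 0 = under 10%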
Method in brief: (§2)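 Herbicidal effect scored 21 days post-treatment after greenhouse cultivation. Treatment was applied dropwise to the water surface, one day after sowing, as a diluted wettable powder (100 g a.i./10 ares). Pots held puddled paddy soil under 3 cm water.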

barnyard grass (Eo) [5] = assay: as above; design: herbicidal effects, Eo (barnyard grass):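 0-5 growth inhibition grade; 5 = over 90%; 4 = 70-90%; 3 = 50-70%; 2 = 30-50%; 1 = 10-30%; 0 = under 10%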; settings: for herbicidal effects, Eo (barnyard grass): dose 100 g active ingredient per 10 ares, examined on the 21st day after treatment, standards of Table 44
Method in brief: as §2

barnyard grass (Ec) [6] = assay: Test Example 3: herbicidal effects by foliage treatment in upland field; design: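 0-5 growth inhibition grade; 5 = over 90%; 4 = 70-90%; 3 = 50-70%; 2 = 30-50%; 1 = 10-30%; 0 = under 10%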; settings: dose 100 g active ingredient per 10 ares, examined on the 14th day after treatment
Procedure: In a 80 cm^2 plastic pot, upland soil was filled, and seeds of barnyard grass (Ec) and green foxtail (Se) were sown and cultured in a green house for 2 weeks. Then, a wettable powder prepared in accordance with Formulation Example 1 was diluted with water and applied to the entire foliage from above the plants by means of a small size spray at a rate of 100 l per 10 ares so that the dose of the active ingredient would be 100 g per 10 ares. Thereafter, cultivation was carried out in a green house, and on the 14th day after the treatment, the herbicidal effects were examined in accordance with the standards of Table 44.

[7] = dose 100 gai/10a, examined on 21st day after treatment, index 0-5 per Table 44
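For Herbicidal effect index, Eo in this document: 0-5 growth inhibition grade; 5 = over 90%; 4 = 70-90%; 3 = 50-70%; 2 = 30-50%; 1 = 10-30%; 0 = under 10%.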

Row | SMILES | Ec (herbicidal effects, index) (barnyard grass (Ec) [1]) | Mo (herbicidal effect index) (monochoria (Mo) [2]) | Or (herbicidal effect index on crop) (rice (Or)) | Eo (herbicidal effect index) (barnyard grass (Eo) [3]) | herbicidal effects, Mo (monochoria) (monochoria (Mo) [4]) | herbicidal effects, Eo (barnyard grass) (barnyard grass (Eo) [5]) | Ec (herbicidal effects, index) (barnyard grass (Ec) [6]) | Herbicidal effect index, Mo (monochoria (Mo) [4]; [7]) | Herbicidal effect index, Eo (barnyard grass (Eo) [5]; [7])
1 | CSC(C)C(c1cncnc1C(F)(F)F)N(C)C(=O)Cc1ccc(F)cc1 (mixture of isomers) [1-416] | 5 | 5 | 1 | 5 | 5 | 5 | 5 | – | –
2 | CC(=O)c1ncncc1C(C(C)C)N(C)C(=O)C(C)c1ccc(Cl)cc1 (mixture of isomers) [1-530] | 5 | 5 | 1 | 5 | 5 | 5 | 4 | – | –
3 | COCc1ncncc1C(C(C)C)N(C)C(=O)C(C)c1ccc(Cl)cc1 (mixture of isomers) [1-591] | 5 | 5 | 1 | 5 | 5 | 5 | 4 | – | –
4 | CCC(C)C(c1cncnc1C(F)(F)F)N(C)C(=O)Cc1ccc(Cl)s1 (mixture of isomers) [2-57] | 5 | 5 | 1 | 5 | 5 | 5 | 5 | – | –
5 | CCC(C)C(c1cncnc1C(F)(F)F)N(C)C(=O)Cc1ccc(Cl)cc1F (mixture of isomers) [Compound 1-251] | 5 | 5 | 1 | 5 | 5 | 5 | 4 | – | –
6 | CN(C(=O)Cc1ccccc1)C(c1ccc(Cl)cc1)c1cncnc1C(F)(F)F (racemic) [1-221] | – | 5 | 1 | 5 | 5 | 5 | 4 | – | –
7 | CON(C(=O)Cc1ccc(F)cc1)C(c1cncnc1C(F)(F)F)C(C)C (racemic) [1-333] | 5 | 5 | 1 | 5 | 5 | 5 | 4 | – | –
8 | CC(C)CC(c1cncnc1C(F)(F)F)N(C)C(=O)Cc1cccc(F)c1 (racemic) [1-334] | 5 | 5 | 0 | 5 | 5 | 5 | 4 | – | –
9 | COc1ncncc1C(C(C)C)N(C)C(=O)Cc1ccccc1 (racemic) [1-401] | 5 | 5 | 1 | 5 | 5 | 5 | 5 | – | –
10 | COc1ncncc1C(C(C)C)N(C)C(=O)Cc1ccc(C)cc1 (racemic) [1-404] | 5 | 5 | 1 | 5 | 5 | 5 | 5 | – | –
11 | Cc1ccc(CC(=O)N(C)C(c2cncnc2C(F)(F)F)C2(C)CC2)cc1 (racemic) [1-412] | 5 | 5 | 1 | 5 | 5 | 5 | 4 | – | –
12 | CC(C)C(c1cncnc1C(F)(F)F)N(C)C(=O)Cc1ccc(F)c(F)c1F (racemic) [1-417] | 5 | 5 | 1 | 5 | 5 | 5 | 4 | – | –
13 | CCC(c1cncnc1C(C)C)N(C)C(=O)Cc1ccccc1 (racemic) [1-436] | 5 | 5 | 1 | 5 | 5 | 5 | 4 | – | –
14 | COc1ccc(C(c2cncnc2C(F)(F)F)N(C)C(=O)Cc2ccc(Cl)cc2)cc1 (racemic) [1-486] | – | 5 | 1 | 5 | 5 | 5 | 4 | – | –
15 | COCc1ncncc1C(C(C)C)N(C)C(=O)Cc1ccc(Cl)cc1 (racemic) [1-589] | 5 | – | – | – | 5 | 5 | 4 | – | –
16 | CC(C)c1ncncc1C(C(C)C)N(C)C(=O)Cc1cccs1 (racemic) [2-23] | 5 | – | – | – | 5 | 5 | 4 | – | –
17 | CC(C)C(c1cncnc1C(F)(F)F)N(C)C(=O)COc1cc(C(F)(F)F)nn1C (racemic) [2-46] | 5 | – | – | – | 5 | 5 | 4 | – | –
18 | CC(C)CC(c1cncnc1C(F)(F)F)N(C)C(=O)Cc1cccs1 (racemic) [2-51] | 5 | – | – | – | 5 | 5 | 4 | – | –
19 | Cc1ccc(CC(=O)N(C)C(CC(C)C)c2cncnc2C(F)(F)F)s1 (racemic) [2-53] | 5 | – | – | – | 5 | 5 | 4 | – | –
20 | CCOCN(C(=O)Cc1ccc(C)cc1)C(c1cncnc1C(F)(F)F)C(C)C (racemic) [Compound 1-107] | – | 5 | 0 | 5 | – | – | 4 | 5 | 5
21 | CC(C)c1ncncc1C(C(C)C)N(C)C(=O)Cc1cccc(F)c1 (racemic) [Compound 1-270] | 5 | – | – | – | 5 | 5 | 4 | – | –
22 | COC(=O)c1ncncc1C(C(C)C)N(C)C(=O)C(C)c1ccc(Cl)cc1 (single isomer, unassigned) [Compound 1-592, 5-(1-{[2-(4-chlorophenyl)-propionyl]methylamino}-2-methylpropyl)-pyrimidine-4-carboxylic acid methyl ester] | 5 | – | – | – | 5 | 5 | 5 | – | –
